Assay results as given in patent US6060487A, “Indanol compounds” (Adir et Compagnie, priority 1997, dated 2000).

Legend:
[1] = molecular target: T1, post-synaptic 5-HT1A receptors (Rattus norvegicus, UniProt P19327); details: M. J. Millan, 1993; cited from earlier work
T1 construct: Body Temperature Test in Rats (post-synaptic 5-HT1A receptors); from tissue; host or cells: living rat (whole animal)
T1 sequence (P19327 1-422): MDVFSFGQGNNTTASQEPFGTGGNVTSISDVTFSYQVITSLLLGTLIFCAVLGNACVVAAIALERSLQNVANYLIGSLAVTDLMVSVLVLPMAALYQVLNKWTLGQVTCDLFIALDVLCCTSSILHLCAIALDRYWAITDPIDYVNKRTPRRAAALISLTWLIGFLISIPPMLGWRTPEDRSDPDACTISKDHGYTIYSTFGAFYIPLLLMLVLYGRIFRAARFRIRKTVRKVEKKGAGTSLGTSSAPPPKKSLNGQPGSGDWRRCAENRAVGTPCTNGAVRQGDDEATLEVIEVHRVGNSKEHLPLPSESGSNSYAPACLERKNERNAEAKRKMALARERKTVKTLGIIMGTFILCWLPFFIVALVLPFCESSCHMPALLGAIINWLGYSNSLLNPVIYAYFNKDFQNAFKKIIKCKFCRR

[2] = molecular target: T1, post-synaptic 5-HT1A receptors; experiment: Body temperature test in rats; assay type: in vivo
Text: 2. Body Temperature Test in Rats (post-synaptic 5-HT1A receptors)
That effect is reversed by 5-HT1A antagonists,as has been shown by M. J. Millan (J. Pharmacol. Exp. Ther., 1993, 264, 1346-1376). According to the protocol described by that author, compounds of the invention which when administered on their own bring about a decrease in body temperature will be identified as post-synaptic 5-HT1A serotoninergic agonists. On the other hand, compounds of the invention that reverse the hypothermia induced by the prototypical 5-HT1A agonist 8-OH-DPAT will be identified as post-synaptic 5-HT1A antagonists.

[3] = Ultrasonic vocalisation test in rats; assay type: in vivo, Male Wistar rats; details: for duration of the ultrasonic vocalisations: mean ± s.e.m.
Text: 3. Ultrasonic Vocalisation Test in Rats
When a rat is placed in an environment previously associated with an unpleasant experience (electric shocks to the paws), its anxiety is shown by the emission of inaudible cries (or ultrasonic vocalisations).
Standard cages (Coulbourn Instruments), placed in sound-absorbing ventilated boxes, are fitted with a floor composed of electrifiable metal bars (shock generator and scrambler Med Associates Inc) and with a microphone located in the centre of the ceiling. The ultrasonic noises are converted into an audible range (bat-detector Buitenbedrijf). The signals modified in that manner are filtered and then processed (RTS software, Engineering Design). The spectrograms obtained are recorded on DAT tapes.
Male Wistar rats weighing 180-200 g on their arrival are placed in cages of four with free access to water and food from five days before the start of the study until the end of the study. The procedure employed is divided into three successive stages separated by 24 hours, called training, selection and test. During the training period, the animals are placed individually into cages where they receive six electric shocks (0.8 mA, 8 s) distributed randomly over a period of seven minutes. Selection comprises placing each animal in a cage for two minutes where it receives a single shock and putting it back in the cage thirty minutes later to record the ultrasonic vocalisations for a period of ten minutes; those animals in which the duration of the vocalisations is less than 90 seconds are excluded from the remainder of the experiment. The test phase proceeds in a similar manner to the selection stage, except that the compounds or the carrier are administered at the end of the two-minute period.

α1 receptors = experiment: Affinity for α1 receptors of rats, competition with [^3 H]-prazosin; assay type: binding; details: frontal cortex of rat, 25° C.
Experimental: The radioactivity retained on the filters is determined by liquid scintillation counting. The binding isotherms are analysed by non-linear regression using `PRISM` software (GraphPad Software Inc., S. Diego, USA) to determine IC50 values.

[4] = molecular target: T2, pre-synaptic 5-HT1A receptors (Rattus norvegicus, UniProt P19327); experiment: In vivo recording of unitary extracellular electrical activity in the dorsal nucleus of the raphe in rats
T2 construct: in the Dorsal Nucleus of the Raphe in Rats (pre-synaptic 5-HT1A receptors); from tissue; host or cells: living anaesthetised rat, serotoninergic neurons of the dorsal nucleus of the raphe
T2 sequence (P19327 1-422): T1 sequence (P19327 1-422)
Experimental: 1. "In Vivo" Recording of Unitary Extracellular Electrical Activity in the Dorsal Nucleus of the Raphe in Rats (pre-synaptic 5-HT1A receptors)
The administration of a 5-HT1A serotoninergic agonist decreases the discharge frequency of neurons in a dose-dependant manner. That effect is reversed by the selective 5-HT1A antagonist, WAY 100,635.
The rats are anaesthetised with chloral hydrate (400 mg/kg, i.p.) and placed in a stereotaxis apparatus (Unimecanique, France) after catheterisation of the femoral vein. The level of anaesthesia is maintained by i.p. administration of chloral hydrate every hour; the rectal temperature is maintained at 37±1° C. by means of a thermostatically controlled heated cover. A tungsten microelectrode (10 M.OMEGA., 1 μM) is inserted using an electronic microinsertion device (Unimecanique, France) into the dorsal nucleus of the raphe (AP: -7.8/bregma; L: 0.0; H: 5.0-6.5/dura; Paxinos and Watson Atlas, 1986). The potentials of the serotoninergic cells are characterised by their morphology (positive/negative biphase potentials, of a duration of less than 2.5 msec) and their slow and regular discharge rhythm of from 0.5 to 2.5 Hz. A single cell per animal is recorded.
After a period of ≥5 min (basal activity) and a first injection of carrier (distilled water to which a few drops of dilute lactic acid have been added, pH adjusted to 5 with 1N NaOH), the compound of the invention is administered intravenously in cumulatively increasing doses at intervals of 5 minutes.
Acquisition of the data is effected by the software Spike2 (Cambridge Electronic Design, England). The discharge frequency is measured over one minute at the maximum variation between each injection and is expressed as a percentage variation in relation to the basal activity (average of the 5 minutes preceding the first treatment) defined as 100%. The ID50 is calculated using a simple linear regression method with repeated measurements.

human 5-HT1A receptor = molecular target: T3, human 5-HT1A receptor (Homo sapiens, UniProt P08908); experiment: Affinity for human h5-HT1A receptors, competition with [^3 H]-8-OH-DPAT; assay type: binding
T3 construct: expressed in transfected cells; host or cells: CHO cells (membranes)
T3 sequence (P08908 1-422): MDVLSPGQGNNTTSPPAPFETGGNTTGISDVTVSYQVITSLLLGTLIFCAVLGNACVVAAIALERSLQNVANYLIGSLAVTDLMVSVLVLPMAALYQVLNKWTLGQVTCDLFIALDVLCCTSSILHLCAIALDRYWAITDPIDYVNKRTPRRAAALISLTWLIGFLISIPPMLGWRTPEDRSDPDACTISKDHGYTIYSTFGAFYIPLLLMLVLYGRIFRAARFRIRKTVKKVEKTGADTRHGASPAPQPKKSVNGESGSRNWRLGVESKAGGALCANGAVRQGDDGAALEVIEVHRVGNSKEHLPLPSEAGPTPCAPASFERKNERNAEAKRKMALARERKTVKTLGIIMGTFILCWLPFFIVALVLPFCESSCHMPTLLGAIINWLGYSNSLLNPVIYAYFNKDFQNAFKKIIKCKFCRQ
Experimental: The radioactivity retained on the filters is determined by liquid scintillation counting.

| ED50 ([2]; sc, read-out: ID50 (reversal of the effects of 8-OH-DPAT, hypothermia)) | Ki (α1 receptors) | discharge frequency, percentage in relation to the basal activity (100%) ([4]; 0.25 μg/kg i.v., n = 3, mean ± standard error of the mean) | discharge frequency, percentage in relation to the basal activity (100%) ([4]; 0.5 μg/kg i.v., n = 3, mean ± standard error of the mean) | discharge frequency, percentage in relation to the basal activity (100%) ([4]; 1 μg/kg i.v., n = 3, mean ± standard error of the mean) | ED50 ([4]; intravenous, rat dorsal raphe, read-out: ID50 (decrease of discharge frequency)) | discharge frequency, percentage in relation to the basal activity (100%), after WAY 100,635 ([4]; reversal by WAY 100,635 31 μg/kg after cumulative Example 6 doses, n = 3, mean ± standard error of the mean) | Ki (human 5-HT1A receptor) | Structure (SMILES) | effect on body temperature [1] | character at post-synaptic 5-HT1A receptors ([2]; post-synaptic, s.c.) | duration of the ultrasonic vocalisations ([3]; 0.04 mg/kg s.c., n = 6) | duration of the ultrasonic vocalisations ([3]; 0.16 mg/kg s.c., n = 3, ** p < 0.01 vs carrier (Dunnett test)) | duration of the ultrasonic vocalisations ([3]; 2.5 mg/kg s.c., n = 5, ** p < 0.01 vs carrier (Dunnett test)) | effect on duration of the vocalisations (anxiolytic activity) ([3]; 0.16 and 2.5 mg/kg s.c.) | character at pre-synaptic 5-HT1A receptors ([4]; pre-synaptic, rat, i.v.) |
| --- | --- | --- | --- | --- | --- | --- | --- | --- | --- | --- | --- | --- | --- | --- | --- |
| – | – | – | – | – | – | – | – | CCCN(CCC)C1CCc2cccc(O)c2C1 (stereo not drawn) [Example 8-OH-DPAT] | brings about a decrease in body temperature in a dose-dependent manner | – | – | – | – | – | – |
| 1.3 mg/kg | 932 nM | 73.84% | 52.23% | 36.16% | 0.00059 mg/kg | 140.48% | 1.73 nM | O[C@@H]1c2ccccc2C[C@H]1N1CCN(c2cccc3c2OCCO3)CC1 (relative stereo) [Example 6, Trans-2-[4-(2,3-dihydro[1,4]benzodioxin-5-yl)piperazin-1-yl]indan-1-ol] | – | behaves like a post-synaptic 5-HT1A serotoninergic antagonist | 170 ± 62 s | 28 ± 14 s | 8 ± 8 s | brings about a reduction in the duration of the vocalisations, indicating its anxiolytic activity | behaves like a 5-HT1A serotoninergic agonist at the pre-synaptic level |
